Data: patent US10828315B2 (Madrigal Pharmaceuticals, Inc., priority 2013, dated 2020)
In brackets after ≈: the same amount, converted by molar mass. Entries after “also recorded” stand apart in the source; their conditions may differ.

How the values were obtained:
[1] = Physical appearance of SDC-TRAP-0063 formulations and infusion solutions with different diluents and carbonate buffers; format: physicochemical
Protocol: First, a stock solution of SDC-TRAP-0063 was prepared in DMSO at 22 mg/mL, then the required amount of tween 80 was added and mixed well.
The above formulation containing SDC-TRAP-0063 was diluted using either D5W, D5W (pH 10.5, adjusted with 4.55 mM NaOH) or carbonate buffer, pH 10) (final drug concentration.: 1 mg/mL SDC-TRAP-0063, 1.8% v/v Tween 80, 5% v/v DMSO). The physical observations on these solutions were noted before and filtration through 0.22μ PES filter and were further observed for 3 hr. Refer to the table below for summary of observations. Note: Carbonate buffer, pH 10 was prepared by mixing 0.1M sodium carbonate (27.5 mL) and 0.1M sodium bicarbonate (22.5 mL) and qs 200 mL with DIW. The total Na content of carbonate buffer was 39 mM.
A stock solution of SDC-TRAP-0063 was prepared in either DMSO or PEG-300. To prepare formulations containing DMSO and tween 80, required amount of tween 80 added to the stock of DMSO (containing SDC-TRAP-0063). The formulations were then was diluted with carbonate buffer, pH 10 (composition: add and mix 0.1M sodium carbonate (27.5 mL) and 0.1M sodium bicarbonate (22.5 mL) and qs 200 mL with DIW). The samples (prepared in glass vial) were mixed well and observed for physical appearance while stirring on a magnetic stirring plate at ambient. (Note-appropriate amounts of SDC-TRAP-0063, tween 80, DMSO and PEG-300, as applicable were used to prepare the solutions at the desired concentrations and drug concentrations at 1 mg/mL through 5 mg/mL as shown).
Carbonate buffers of different pH (pH 9-10) and ionic strengths (with higher (>2) Na contents that SDC-TRAP-0063 on molar basis) were prepared and used for diluting the DMSO/tween 80 formulation loaded with SDC-TRAP-0063 (as described in earlier section 3). The final concentrations of DMSO and tween 80 in the diluted carbonate buffer were 5% v/v and 1.8% v/v respectively. The drug concentration was kept constant (5 mg/mL) for all diluted samples.

[2] = tested on: human SCLC tumor xenografts; experiment: Antitumor activity in human SCLC tumor xenografts; format: in vivo, mice
[3] = Solubility of SDC-TRAP-0063 (ganetespib placebo formulation, PEG-300); format: physicochemical; details: PEG-300, organic solvent or mixture, thermodynamic from solid; Lot 8; estimated; read-out: equilibrium solubility in PEG-300
SK-OV-3 xenografts = experiment: Antitumor activity in SK-OV-3 ovarian cancer xenografts; format: in vivo, female Balb/c nude mice; details: SDC-TRAP-0063 200 mg/kg group; irinotecan alone and with ganetespib; 200 mg/kg
Protocol: This model is sensitive to HSP90 inhibition.
However, once the dosing is discontinued all but 200 mg/kg of SDC-TRAP-0063 dose group maintained tumor growth inhibition for a prolonged period of time.

## CCc1c2c(nc3ccc(OC(=O)N4CCC(CCn5ccc6cc(-n7c(O)nnc7-c7cc(C(C)C)c(O)cc7O)ccc65)CC4)cc13)-c1cc3c(c(=O)n1C2)COC(=O)[C@]3(O)CC [SDC-TRAP-0063, 4,11-diethyl-4-hydroxy-3,14-dioxo-3,4,12,14-tetrahydro-1H-pyrano[3′,4′:6,7]indolizino[1,2-b]quinolin-9-yl 4-(2-(5-(3-(2,4-dihydroxy-5-isopropylphenyl)-5-hydroxy-4H-1,2,4-triazol-4-yl)-1H-indol-1-yl)ethyl)piperidine-1-carboxylate]
[1]; 5% v/v DMSO, carbonate buffer pH 10 (39 mM Na), 1 mg/mL, Overnight
  Observations (physical appearance): Clear yellow solution
[1]; 5% v/v DMSO, carbonate buffer pH 10 (39 mM Na), 2 mg/mL, 30 min
  Observations (physical appearance): Cloudy
[1]; 5% v/v DMSO, carbonate buffer pH 10 (39 mM Na), 2 mg/mL, 1 h
  Observations (physical appearance): Cloudy
[1]; 5% v/v DMSO, carbonate buffer pH 10 (39 mM Na), 2 mg/mL, 6 h
  Observations (physical appearance): Cloudy
[1]; 5% v/v DMSO, carbonate buffer pH 10 (39 mM Na), 2 mg/mL, Initial
  Observations (physical appearance): Cloudy
[1]; 5% v/v DMSO, carbonate buffer pH 10 (39 mM Na), 2 mg/mL, Overnight
  Observations (physical appearance): Opaque (less cloudy than at 6 h)
[1]; 5% v/v DMSO, carbonate buffer pH 10 (39 mM Na), 3 mg/mL, 30 min
  Observations (physical appearance): Cloudy
[1]; 5% v/v DMSO, carbonate buffer pH 10 (39 mM Na), 3 mg/mL, 1 h
  Observations (physical appearance): Cloudy
[1]; 5% v/v DMSO, carbonate buffer pH 10 (39 mM Na), 3 mg/mL, 6 h
  Observations (physical appearance): Cloudy
[1]; 5% v/v DMSO, carbonate buffer pH 10 (39 mM Na), 3 mg/mL, Initial
  Observations (physical appearance): Cloudy
[1]; 5% v/v DMSO, carbonate buffer pH 10 (39 mM Na), 3 mg/mL, Overnight
  Observations (physical appearance): Cloudy
[1]; 5% v/v DMSO, carbonate buffer pH 10 (39 mM Na), 4 mg/mL, 30 min
  Observations (physical appearance): Cloudy
[1]; 5% v/v DMSO, carbonate buffer pH 10 (39 mM Na), 4 mg/mL, 1 h
  Observations (physical appearance): Cloudy
[1]; 5% v/v DMSO, carbonate buffer pH 10 (39 mM Na), 4 mg/mL, 6 h
  Observations (physical appearance): Cloudy
[1]; 5% v/v DMSO, carbonate buffer pH 10 (39 mM Na), 4 mg/mL, Initial
  Observations (physical appearance): Cloudy
[1]; 5% v/v DMSO, carbonate buffer pH 10 (39 mM Na), 4 mg/mL, Overnight
  Observations (physical appearance): Cloudy
[1]; 5% v/v DMSO, carbonate buffer pH 10 (39 mM Na), 5 mg/mL, 30 min
  Observations (physical appearance): Cloudy
[1]; 5% v/v DMSO, carbonate buffer pH 10 (39 mM Na), 5 mg/mL, 1 h
  Observations (physical appearance): Cloudy
[1]; 5% v/v DMSO, carbonate buffer pH 10 (39 mM Na), 5 mg/mL, 6 h
  Observations (physical appearance): Cloudy
[1]; 5% v/v DMSO, carbonate buffer pH 10 (39 mM Na), 5 mg/mL, Initial
  Observations (physical appearance): Cloudy
[1]; 5% v/v DMSO, carbonate buffer pH 10 (39 mM Na), 5 mg/mL, Overnight
  Observations (physical appearance): Cloudy
[1]; DMSO alone 5% v/v, 2 mg/mL through 5 mg/mL
  physical appearance after dilution with carbonate buffer, pH 10: stayed cloudy for more than 24 h
[1]; PEG-300 formulations, 1 mg/mL and 2 mg/mL
  physical appearance after dilution with carbonate buffer, pH 10: appeared clear at 30 mm and 1 hr of stirring respectively
[1]; PEG-300 formulations, 3 mg/mL, 4 mg/mL and 5 mg/mL
  physical appearance after dilution with carbonate buffer, pH 10: took longer and were clear next day
[1]; […] v/v PEG-300, carbonate buffer pH 10 (39 mM Na), 1 mg/mL, 30 min
  Observations (physical appearance): clear,
[1]; […] v/v PEG-300, carbonate buffer pH 10 (39 mM Na), 1 mg/mL, 1 h
  Observations (physical appearance): clear, yellow
[1]; […] v/v PEG-300, carbonate buffer pH 10 (39 mM Na), 1 mg/mL, 2 h
  Observations (physical appearance): clear, yellow
[1]; […] v/v PEG-300, carbonate buffer pH 10 (39 mM Na), 1 mg/mL, Initial
  Observations (physical appearance): slightly
[1]; […] v/v PEG-300, carbonate buffer pH 10 (39 mM Na), 1 mg/mL, Overnight
  Observations (physical appearance): clear, yellow
[1]; […] v/v PEG-300, carbonate buffer pH 10 (39 mM Na), 2 mg/mL, 30 min
  Observations (physical appearance): Translucent
[1]; […] v/v PEG-300, carbonate buffer pH 10 (39 mM Na), 2 mg/mL, 1 h
  Observations (physical appearance): clear, yellow
[1]; […] v/v PEG-300, carbonate buffer pH 10 (39 mM Na), 2 mg/mL, 2 h
  Observations (physical appearance): clear, yellow
[1]; […] v/v PEG-300, carbonate buffer pH 10 (39 mM Na), 2 mg/mL, Initial
  Observations (physical appearance): cloudy
[1]; […] v/v PEG-300, carbonate buffer pH 10 (39 mM Na), 2 mg/mL, Overnight
  Observations (physical appearance): clear, yellow
[1]; […] v/v PEG-300, carbonate buffer pH 10 (39 mM Na), 3 mg/mL, 30 min
  Observations (physical appearance): cloudy
[1]; […] v/v PEG-300, carbonate buffer pH 10 (39 mM Na), 3 mg/mL, 1 h
  Observations (physical appearance): cloudy
[1]; […] v/v PEG-300, carbonate buffer pH 10 (39 mM Na), 3 mg/mL, 2 h
  Observations (physical appearance): cloudy
[1]; […] v/v PEG-300, carbonate buffer pH 10 (39 mM Na), 3 mg/mL, Initial
  Observations (physical appearance): cloudy
[1]; […] v/v PEG-300, carbonate buffer pH 10 (39 mM Na), 3 mg/mL, Overnight
  Observations (physical appearance): clear, yellow
[1]; […] v/v PEG-300, carbonate buffer pH 10 (39 mM Na), 4 mg/mL, 30 min
  Observations (physical appearance): cloudy
[1]; […] v/v PEG-300, carbonate buffer pH 10 (39 mM Na), 4 mg/mL, 1 h
  Observations (physical appearance): cloudy
[1]; […] v/v PEG-300, carbonate buffer pH 10 (39 mM Na), 4 mg/mL, 2 h
  Observations (physical appearance): cloudy
[1]; […] v/v PEG-300, carbonate buffer pH 10 (39 mM Na), 4 mg/mL, Initial
  Observations (physical appearance): cloudy
[1]; […] v/v PEG-300, carbonate buffer pH 10 (39 mM Na), 4 mg/mL, Overnight
  Observations (physical appearance): clear, yellow
[1]; […] v/v PEG-300, carbonate buffer pH 10 (39 mM Na), 5 mg/mL, 30 min
  Observations (physical appearance): cloudy
[1]; […] v/v PEG-300, carbonate buffer pH 10 (39 mM Na), 5 mg/mL, 1 h
  Observations (physical appearance): cloudy
[1]; […] v/v PEG-300, carbonate buffer pH 10 (39 mM Na), 5 mg/mL, 2 h
  Observations (physical appearance): cloudy
[1]; […] v/v PEG-300, carbonate buffer pH 10 (39 mM Na), 5 mg/mL, Initial
  Observations (physical appearance): cloudy
[1]; […] v/v PEG-300, carbonate buffer pH 10 (39 mM Na), 5 mg/mL, Overnight
  Observations (physical appearance): clear, yellow
[1]; carbonate buffer pH about 10, high ionic strength, […] v/v tween 80 and 5% v/v DMSO
  achievable drug concentration in solution: at least 5 mg/mL
[1]; high ionic strength carbonate buffer at pH 9.5, 5 mg/mL
  time to clear solution: ≤ 3 h
[1]; pH 9.3 and pH 9.5, 5% v/v DMSO + […] v/v tween 80, 5 mg/mL
  physical appearance in lower pH carbonate buffers: remain cloudy even after stirring overnight
[2]; SCLC xenografts
  tolerability: very well tolerated
[2]; once weekly for three weeks, then drug-free period, SDC-TRAP-0063 100 and 150 mg/kg
  antitumor activity in SCLC xenografts (FIG. 19): remarkable and durable antitumor activity compared with irinotecan or ganetespib plus irinotecan
[3]
  solubility thermodynamic: ~44 mg/mL (≈ 50 mM)
SK-OV-3 xenografts
  antitumor activity in SK-OV-3 xenografts (FIG. 25): maintains the tumor growth inhibition for several weeks; also recorded: statistically significant inhibitory impact on the growth of SK-OV-3 xenografts
